Activity calls are given as the source filed them.
Assays:
[1] = molecular target: Cytochrome P450 2C19 (Homo sapiens, UniProt P33261); assay: Cytochrome panel assay with activity outcomes. Panel member name: p450-cyp2c19 Compounds with AC50 equal or less than 10 uM are considered active; type: functional; conditions: read-out: AC50
[2] = molecular target: 1-phosphatidylinositol 4,5-bisphosphate phosphodiesterase gamma-1 (Homo sapiens, UniProt P19174); assay: Counterscreen for inhibitors of phospholipase C isozymes (PLC-B3): Fluorescence-based biochemical high throughput dose response assay to identify inhibitors of phospholipase C isozymes (PLC-gamma1).
Sequence of 1-phosphatidylinositol 4,5-bisphosphate phosphodiesterase gamma-1 (P19174 whole entry): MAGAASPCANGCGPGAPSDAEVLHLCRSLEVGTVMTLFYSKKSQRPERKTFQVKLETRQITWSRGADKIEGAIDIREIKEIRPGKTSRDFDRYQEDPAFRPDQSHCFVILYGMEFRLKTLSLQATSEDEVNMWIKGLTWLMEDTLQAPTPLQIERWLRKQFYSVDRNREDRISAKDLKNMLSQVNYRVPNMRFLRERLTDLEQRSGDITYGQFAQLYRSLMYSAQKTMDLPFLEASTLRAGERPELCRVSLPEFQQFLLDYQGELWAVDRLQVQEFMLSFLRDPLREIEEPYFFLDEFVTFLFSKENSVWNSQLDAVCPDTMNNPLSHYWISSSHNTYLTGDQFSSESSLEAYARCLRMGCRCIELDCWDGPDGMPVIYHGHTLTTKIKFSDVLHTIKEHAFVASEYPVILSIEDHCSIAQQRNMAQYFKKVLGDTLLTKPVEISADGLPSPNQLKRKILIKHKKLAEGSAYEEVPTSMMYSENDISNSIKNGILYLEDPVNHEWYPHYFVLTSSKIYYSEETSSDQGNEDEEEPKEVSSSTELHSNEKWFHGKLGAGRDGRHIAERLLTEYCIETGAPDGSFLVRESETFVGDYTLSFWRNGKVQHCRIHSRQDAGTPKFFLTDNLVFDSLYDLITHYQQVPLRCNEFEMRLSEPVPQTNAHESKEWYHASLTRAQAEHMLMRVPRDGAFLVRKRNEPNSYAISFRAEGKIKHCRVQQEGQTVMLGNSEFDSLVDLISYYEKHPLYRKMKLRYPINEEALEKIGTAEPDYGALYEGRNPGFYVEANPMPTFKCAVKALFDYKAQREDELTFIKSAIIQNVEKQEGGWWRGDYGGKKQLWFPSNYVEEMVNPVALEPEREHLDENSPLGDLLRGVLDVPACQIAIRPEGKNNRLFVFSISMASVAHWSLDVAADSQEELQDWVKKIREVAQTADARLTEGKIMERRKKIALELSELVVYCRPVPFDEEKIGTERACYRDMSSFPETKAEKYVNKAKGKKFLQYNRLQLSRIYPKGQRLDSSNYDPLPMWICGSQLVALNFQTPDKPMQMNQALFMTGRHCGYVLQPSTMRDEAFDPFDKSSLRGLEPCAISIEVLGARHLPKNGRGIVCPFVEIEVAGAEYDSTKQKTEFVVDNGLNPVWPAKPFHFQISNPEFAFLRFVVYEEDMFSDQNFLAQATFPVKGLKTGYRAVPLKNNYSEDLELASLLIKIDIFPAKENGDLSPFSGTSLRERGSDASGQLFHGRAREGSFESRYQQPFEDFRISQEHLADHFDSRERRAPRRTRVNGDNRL

[3] = molecular target: 1-phosphatidylinositol 4,5-bisphosphate phosphodiesterase beta-3 (Homo sapiens, UniProt Q01970); assay: Fluorescence-based biochemical high throughput dose response assay to identify inhibitors of phospholipase C isozymes (PLC-B3).
Sequence of 1-phosphatidylinositol 4,5-bisphosphate phosphodiesterase beta-3 (Q01970 whole entry): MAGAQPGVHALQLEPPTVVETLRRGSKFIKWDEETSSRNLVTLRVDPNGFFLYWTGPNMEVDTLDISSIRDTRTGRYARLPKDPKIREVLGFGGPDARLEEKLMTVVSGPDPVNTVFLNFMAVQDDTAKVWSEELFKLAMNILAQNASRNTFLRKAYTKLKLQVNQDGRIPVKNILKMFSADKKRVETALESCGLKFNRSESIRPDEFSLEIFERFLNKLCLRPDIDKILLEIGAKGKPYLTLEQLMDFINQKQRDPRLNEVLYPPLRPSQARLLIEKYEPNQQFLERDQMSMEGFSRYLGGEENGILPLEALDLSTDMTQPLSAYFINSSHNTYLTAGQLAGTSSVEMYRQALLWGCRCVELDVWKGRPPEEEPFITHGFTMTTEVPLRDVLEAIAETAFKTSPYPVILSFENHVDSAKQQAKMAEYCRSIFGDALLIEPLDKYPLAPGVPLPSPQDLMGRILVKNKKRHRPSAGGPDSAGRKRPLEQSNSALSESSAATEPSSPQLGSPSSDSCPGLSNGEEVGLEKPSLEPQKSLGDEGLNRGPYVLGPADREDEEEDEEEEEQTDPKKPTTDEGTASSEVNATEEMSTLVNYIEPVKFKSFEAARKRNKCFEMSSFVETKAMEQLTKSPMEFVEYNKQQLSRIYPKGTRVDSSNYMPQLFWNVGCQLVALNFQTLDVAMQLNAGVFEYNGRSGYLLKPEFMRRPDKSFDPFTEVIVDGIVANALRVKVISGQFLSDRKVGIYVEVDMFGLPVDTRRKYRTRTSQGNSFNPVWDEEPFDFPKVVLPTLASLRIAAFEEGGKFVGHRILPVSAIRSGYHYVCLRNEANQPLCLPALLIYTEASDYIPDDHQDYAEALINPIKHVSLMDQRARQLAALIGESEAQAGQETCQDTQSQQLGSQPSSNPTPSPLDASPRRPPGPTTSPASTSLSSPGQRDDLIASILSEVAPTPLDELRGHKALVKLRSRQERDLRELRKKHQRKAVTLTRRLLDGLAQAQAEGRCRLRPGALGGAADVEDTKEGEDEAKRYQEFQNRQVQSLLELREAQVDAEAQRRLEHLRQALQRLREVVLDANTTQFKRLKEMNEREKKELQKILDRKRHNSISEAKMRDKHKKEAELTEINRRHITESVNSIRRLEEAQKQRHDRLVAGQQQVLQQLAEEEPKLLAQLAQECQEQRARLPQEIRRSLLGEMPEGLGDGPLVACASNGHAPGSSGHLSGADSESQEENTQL

[4] = molecular target: Cytochrome P450 2D6 (Homo sapiens, UniProt P10635);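 also: CYP2D6 member of a cytochrome P450 panel assay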
Sequence of Cytochrome P450 2D6 (P10635 whole entry): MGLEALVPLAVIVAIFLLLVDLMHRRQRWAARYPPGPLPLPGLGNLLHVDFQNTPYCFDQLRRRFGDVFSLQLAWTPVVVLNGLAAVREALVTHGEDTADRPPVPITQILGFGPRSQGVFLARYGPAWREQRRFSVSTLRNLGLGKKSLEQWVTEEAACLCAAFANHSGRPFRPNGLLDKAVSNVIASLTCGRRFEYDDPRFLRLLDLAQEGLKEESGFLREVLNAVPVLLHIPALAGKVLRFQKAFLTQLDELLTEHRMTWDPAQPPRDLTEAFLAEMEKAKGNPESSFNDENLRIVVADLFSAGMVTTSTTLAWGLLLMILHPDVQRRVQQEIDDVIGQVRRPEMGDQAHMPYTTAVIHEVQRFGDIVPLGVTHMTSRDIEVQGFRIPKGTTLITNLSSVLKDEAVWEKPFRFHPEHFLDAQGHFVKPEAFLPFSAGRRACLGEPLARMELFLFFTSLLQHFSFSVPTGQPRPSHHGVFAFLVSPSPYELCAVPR

[5] = molecular target: Cytochrome P450 2C9 (Homo sapiens, UniProt P11712)
Sequence of Cytochrome P450 2C9 (P11712 whole entry, the tested form may be a part): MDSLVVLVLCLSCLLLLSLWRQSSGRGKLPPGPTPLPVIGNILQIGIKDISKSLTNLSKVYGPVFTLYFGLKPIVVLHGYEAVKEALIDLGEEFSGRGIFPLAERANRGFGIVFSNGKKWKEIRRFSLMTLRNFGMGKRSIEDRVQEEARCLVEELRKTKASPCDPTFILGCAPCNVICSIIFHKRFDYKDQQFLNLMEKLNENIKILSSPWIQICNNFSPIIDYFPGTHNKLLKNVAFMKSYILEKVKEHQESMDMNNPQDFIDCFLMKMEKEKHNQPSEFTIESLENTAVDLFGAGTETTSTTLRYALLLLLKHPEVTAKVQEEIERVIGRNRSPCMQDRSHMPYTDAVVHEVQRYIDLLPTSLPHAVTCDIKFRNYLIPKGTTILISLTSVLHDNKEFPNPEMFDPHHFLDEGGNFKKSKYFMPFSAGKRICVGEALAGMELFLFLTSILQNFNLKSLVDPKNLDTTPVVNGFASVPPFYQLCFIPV

[6] = molecular target: T1, Oxysterols receptor LXR-beta (Homo sapiens, UniProt P55055); type: functional, cell-based;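 also: Cell-based luminescence dose-response assay of agonist activity at LXR, run as a confirmatory counterscreen to a daf-12 agonist screen; HEK293 cells with Gal4-LXR fusion and GAL4-driven luciferase reporter; agonist potency from rising luciferase signal of a Gal4-LXR reporter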
T1 sequence (P55055 whole entry): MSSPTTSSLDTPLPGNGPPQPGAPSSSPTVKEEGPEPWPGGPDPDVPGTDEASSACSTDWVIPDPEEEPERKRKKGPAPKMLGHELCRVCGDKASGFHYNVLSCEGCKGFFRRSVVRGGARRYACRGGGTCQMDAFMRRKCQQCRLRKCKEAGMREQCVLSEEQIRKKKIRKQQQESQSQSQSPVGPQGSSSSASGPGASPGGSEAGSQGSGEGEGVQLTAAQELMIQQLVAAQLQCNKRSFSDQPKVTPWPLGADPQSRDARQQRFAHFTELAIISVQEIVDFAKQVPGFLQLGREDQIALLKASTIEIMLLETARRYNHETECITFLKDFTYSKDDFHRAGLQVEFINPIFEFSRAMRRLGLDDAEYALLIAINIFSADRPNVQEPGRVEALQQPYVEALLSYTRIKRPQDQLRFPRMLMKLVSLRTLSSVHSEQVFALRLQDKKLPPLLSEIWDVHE

[7] = cells
[8] = luciferase reporter signal suppression in cells – H4 neuroglioma cells, luminescence, dose response (AID 1990); type: functional, cell-based
[9] = Luminescence Cell-Based Dose Response HTS to Identify Inhibitors of 5'UTR Stem-Loop Driven Prion Protein mRNA Translation in H4 Neuroglioblastoma Cells. [Related pubchem assays: 1827 (Project Summary), 1813 (Primary HTS)]; type: functional
[10] = alpha-synuclein stem-loop luciferase translation blockers – H4 neuroglioma cells, luminescence, confirmation (AID 1988); type: functional, cell-based
[11] = general mammalian cell viability loss – activator set, cherry-pick, cytotoxicity control for miR-122 modulator project, dose response (AID 720690); type: functional, cell-based;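 also: HEK293T human cells scored for general mammalian cytotoxicity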
[12] = HEK-293T viability loss after treatment – luminescence, T-cell screen hits, cytotoxicity control for TCR NF-kB inhibitor project, dose response (AID 489026); type: functional, cell-based;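 also: cells exposed to compound about 14 hours before the viability readout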
[13] = molecular target: Paired box protein Pax-8 (Homo sapiens, UniProt Q06710); assay: PAX8 transcriptional activity inhibition in RMG-I – RMG-I cells, luciferase, cherry-pick, dose response (AID 687027); type: functional, cell-based;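 also: luciferase reporter driven by Pax8 target thyroperoxidase promoter measured by SteadyGlo luminescence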
Sequence of Paired box protein Pax-8 (Q06710 whole entry): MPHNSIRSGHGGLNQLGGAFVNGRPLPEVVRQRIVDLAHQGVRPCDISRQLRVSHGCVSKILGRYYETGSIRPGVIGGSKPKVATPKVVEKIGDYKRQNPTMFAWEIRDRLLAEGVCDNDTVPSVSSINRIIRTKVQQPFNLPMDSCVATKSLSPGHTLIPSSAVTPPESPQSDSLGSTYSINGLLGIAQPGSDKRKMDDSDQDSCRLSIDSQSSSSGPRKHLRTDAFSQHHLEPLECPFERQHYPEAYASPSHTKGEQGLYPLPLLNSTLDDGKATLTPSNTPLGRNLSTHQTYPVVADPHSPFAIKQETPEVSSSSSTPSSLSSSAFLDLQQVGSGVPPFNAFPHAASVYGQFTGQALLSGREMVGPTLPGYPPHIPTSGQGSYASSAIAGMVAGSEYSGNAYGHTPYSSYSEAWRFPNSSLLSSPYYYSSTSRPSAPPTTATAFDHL

[14] = A549 cell cytotoxicity, dose response, cytotoxicity control, plate reader, cherry-pick, antagonist series (AID 743412); type: functional, cell-based
[15] = toxicity toward HepG2 liver cells – cell-based, plate reader, cherry-pick, antagonist series, cytotoxicity control, dose response (AID 743416); type: functional
[16] = blockers of bursicon-stimulated LGR2 cAMP reporter – cell-based, HEK293, CRE-luciferase reporter, cherry pick, set 2, dose response (AID 743343); type: functional;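 also: transfected cells were stimulated with diluted bursicon conditioned medium after compound addition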
[17] = general cell-killing toxicity readout – plate reader, dry powder samples, cytotoxicity control for PAX8 inhibitor project, dose response (AID 743021); type: functional, cell-based
[18] = blockade of melanocortin 4 receptor signaling – cell-based, plate reader, cherry pick, counter-screen for LGR2 antagonist project, dose response (AID 743444); type: functional;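 also: transfected HEK 293 cells stimulated with alpha-MSH peptide; potency of inhibitors of the alpha-MSH evoked signal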
[19] = viability loss in HEK293 cells – cell-based, plate reader, cherry-picked samples, cytotoxicity control, dose response (AID 743446); type: functional
[20] = test system: Streptococcus sp. 'group A'; assay: Streptococcus pyogenes SK(-)GAS viability under kanamycin – luminescence, BacTiterGlo, confirmation, counter-screen for streptokinase expression inhibitor project, dose response (AID 1900); type: functional, organism-based
[21] = molecular target: T2, Streptokinase A (Streptococcus pyogenes serotype M1, UniProt P10520); assay: viability-normalized secreted streptokinase activity reduction – plasminogen activation absorbance, OD405, dose response (AID 1914); type: functional, Streptococcus pyogenes M1 GAS;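 also: secreted streptokinase activity via plasminogen activation per viability signal from cell pellet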
T2 sequence (P10520 whole entry): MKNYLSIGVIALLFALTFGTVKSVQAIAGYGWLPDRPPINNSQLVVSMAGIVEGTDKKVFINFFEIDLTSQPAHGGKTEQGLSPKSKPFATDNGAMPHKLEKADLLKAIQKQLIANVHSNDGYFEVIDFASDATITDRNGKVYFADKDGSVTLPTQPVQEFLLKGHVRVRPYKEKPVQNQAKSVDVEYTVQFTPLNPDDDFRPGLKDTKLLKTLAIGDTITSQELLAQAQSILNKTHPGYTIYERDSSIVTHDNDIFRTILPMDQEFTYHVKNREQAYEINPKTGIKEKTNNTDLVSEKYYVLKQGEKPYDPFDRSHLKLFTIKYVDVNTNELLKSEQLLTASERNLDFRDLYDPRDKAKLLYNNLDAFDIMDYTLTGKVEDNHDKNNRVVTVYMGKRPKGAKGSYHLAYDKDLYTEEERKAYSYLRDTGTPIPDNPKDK

[22] = test system: Streptococcus; assay: GAS UMAA2166 growth inhibition – luminescence, BacTiterGlo, counter-screen for streptokinase expression inhibitor project, dose response (AID 1915); type: functional, organism-based;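 also: potency for reduction of bacterial viability or growth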
[23] = THP-1 cell cytotoxicity, dose response, cytotoxicity control for non-replicating M. tuberculosis project (AID 489025); type: functional
[24] = Vero E6 cell cytotoxicity, dose response, cytotoxicity control for non-replicating M. tuberculosis project, secondary assay (AID 492998); type: functional, VeroE6; conditions: Vero C1008
[25] = cells; type: functional
[26] = test system: INS1; assay: INS-1E survival protection against cytokine death – cell-based, luminescence, retest, dose response (AID 449756); type: functional; conditions: Rattus norvegicus;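 also: cell death triggered by IL-1 beta plus TNF-alpha plus IFN-gamma mixture; protective hits raise ATP signal compared with cytokine alone wells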
[27] = IC50 of Artemis nuclease activity blockers – biochemical, fluorescence intensity, dose response (AID 720701); type: functional;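 also: Artemis endonuclease enzyme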
[28] = activation of miR-122 Renilla sensor silencing – cell-based, Huh7 psiCHECK-miR122, Renilla luciferase, cherry-picked, dose response (AID 651956); type: functional;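 also: huh7 hepatoma cells stably carrying a psiCHECK-2 miR-122 sensor plasmid; renilla luciferase signal reporting endogenous miR-122 activity after 48 h compound exposure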
[29] = inhibitors acting on PAX2 in cells – cell-based, plate reader, dry powder samples, selectivity assay for PAX8 inhibitor project, dose response (AID 743048); type: functional;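 also: HEK293 cells carrying a WT1 promoter luciferase reporter driven by expressed Pax2; potency is for inhibition of Pax2 driven reporter signal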
[30] = PAX5 cellular inhibition readout – cell-based, plate reader, dry powder samples, selectivity assay for PAX8 inhibitor project, dose response (AID 743047); type: functional;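 also: HEK293 cells carrying a Pax5 driven CD19 promoter luciferase reporter; potency of inhibitors that lower reporter luminescence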
[31] = COV434 cell viability loss – plate reader, dry powder, SA7, cytotoxicity control for PAX8 inhibitor project, dose response (AID 743145); type: functional, cell-based
[32] = growth inhibition of yeast DHODH-expressing 3D7 parasites – SYBR Green, dry powder samples, dose response (AID 1159570); type: functional, cell-based;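 also: parasite growth measured after 72 hours of compound exposure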
[33] = toxicity to human HepG2 hepatoma cells – cell-based, plate reader, dry powder samples, cytotoxicity control, dose response (AID 1159569); type: functional;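 also: inhibitor potency with signal falling toward the positive control level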
[34] = P. falciparum Dd2 growth inhibitors, dose response, SYBR Green, cherry-picked samples (AID 1159567); type: functional, cell-based
[35] = Dd2 malaria parasite growth inhibition potency – SYBR Green, dry powder samples, dose response (AID 1159566); type: functional, cell-based;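 also: potency for growth inhibition with lower SYBR green DNA signal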
[36] = toxicity to human hepatoma HepG2 cells – cell-based, cherry-picked samples, cytotoxicity control, dose response (AID 1159577); type: functional
[37] = growth inhibition of PfATP4-mutant resistant parasites – NITD609-resistant line, SYBR Green, dry powder, dose response (AID 1159571); type: functional, cell-based;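 also: parasites synchronized at ring stage by sorbitol before testing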
[38] = A2780 cell killing – plate reader, dry powder samples, cytotoxicity control, dose response (AID 743046); type: functional, cell-based
[39] = OVCAR-3 cell viability loss – plate reader, dry powder samples, PAX8 inhibitor project, dose response (AID 743044); type: functional, cell-based
[40] = OVCAR8 cell viability loss – plate reader, dry powder samples, PAX8 project, dose response (AID 743197); type: functional, cell-based; conditions: OVCAR-8
[41] = blockers of HIV-1 envelope-mediated cell-cell fusion – cherry-pick, dose response (AID 652057); type: functional, cell-based
[42] = blockers of HIV-1 ZM109 envelope-driven cell-cell fusion – HeLa effector, CEM target cells, luciferase, cherry-pick, dose response (AID 652058); type: functional, cell-based;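 also: luciferase signal from HIV-1 Env mediated cell-cell fusion of effector and target cells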
[43] = inhibition of Env-driven cell fusion – HIV entry, plate reader, dry powder, dose response (AID 687023); type: functional, cell-based
[44] = molecular target: RNA-editing ligase 1, mitochondrial (Trypanosoma brucei brucei, UniProt P86926); assay: inhibition of trypanosome RNA editing ligase – biochemical, fluorescence, Trypanosoma brucei, dose response (AID 1117295); type: functional
Sequence of RNA-editing ligase 1, mitochondrial (P86926 whole entry): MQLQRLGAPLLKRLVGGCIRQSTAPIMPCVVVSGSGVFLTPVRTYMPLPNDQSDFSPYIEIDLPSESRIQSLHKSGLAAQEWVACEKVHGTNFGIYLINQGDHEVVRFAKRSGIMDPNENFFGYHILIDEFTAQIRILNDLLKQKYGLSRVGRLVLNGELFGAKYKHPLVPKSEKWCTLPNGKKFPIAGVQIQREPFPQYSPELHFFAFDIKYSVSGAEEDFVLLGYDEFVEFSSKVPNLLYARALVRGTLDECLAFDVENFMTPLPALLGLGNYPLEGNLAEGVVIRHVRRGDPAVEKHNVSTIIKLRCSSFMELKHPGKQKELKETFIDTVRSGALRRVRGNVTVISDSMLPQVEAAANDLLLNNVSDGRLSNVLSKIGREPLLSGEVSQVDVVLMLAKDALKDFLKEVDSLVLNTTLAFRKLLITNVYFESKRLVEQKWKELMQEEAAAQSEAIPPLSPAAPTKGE

Sequence of Cytochrome P450 2C19 (P33261 whole entry): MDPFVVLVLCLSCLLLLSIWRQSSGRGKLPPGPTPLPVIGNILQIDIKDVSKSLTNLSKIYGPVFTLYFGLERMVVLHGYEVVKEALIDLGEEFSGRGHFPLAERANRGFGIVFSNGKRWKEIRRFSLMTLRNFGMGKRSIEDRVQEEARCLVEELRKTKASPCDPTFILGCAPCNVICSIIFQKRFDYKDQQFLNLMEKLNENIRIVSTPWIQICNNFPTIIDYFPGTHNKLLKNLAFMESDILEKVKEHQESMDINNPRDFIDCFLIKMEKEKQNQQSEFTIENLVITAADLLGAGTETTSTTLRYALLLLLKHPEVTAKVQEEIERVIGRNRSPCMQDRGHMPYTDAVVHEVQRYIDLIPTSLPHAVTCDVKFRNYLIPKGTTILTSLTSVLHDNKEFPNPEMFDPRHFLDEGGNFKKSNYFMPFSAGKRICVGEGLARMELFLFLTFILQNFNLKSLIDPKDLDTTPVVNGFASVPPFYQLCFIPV

O=C(Nc1cccc2ccccc12)c1ccccc1
AC50 [1]: 2.51 µM (inconclusive)
IC50 [2]: > 123 µM (inactive)
IC50 [3]: > 123 µM (inactive)
AC50 [4]: 0.00251 µM (inconclusive)
AC50 [5]: inconclusive

Cc1ccnc(NC(=O)Nc2cccc(F)c2)c1
EC50 [6]: > 67.5 µM (inactive)
EC50 [7]: > 67.5 µM (inactive)

CCOc1ccc(-c2nnc(SCC(=O)Nc3ccc4c(c3)c3ccccc3n4CC)n2N)cc1
EC50 [8]: 42.3 µM (active)
EC50 [9]: > 120 µM (not active)
EC50 [10]: 11.6 µM (active)
AC50 [11]: 10.3 µM (active)

c1cc2c(cc1C1=NN=C(NC3CC3)SC1)OCCO2
IC50 [12]: > 80 µM (inactive)
AC50 [13]: 2.14 µM (active)
AC50 [14]: 5.39 µM (active)
AC50 [15]: 6.46 µM (active)
AC50 [16]: 0.276 µM (active)
AC50 [17]: 7.92 µM (active)
AC50 [18]: 0.251 µM (active)
AC50 [19]: 4.07 µM (active)

Cc1cc(C)n(-c2nc(NCCCO)c3c4c(sc3n2)CCCC4)n1
EC50 [20]: 25.9 µM (active)
EC50 [21]: > 150 µM (not active)
EC50 [22]: > 150 µM (not active)
CC50 [23]: 38.6 µM (active)
CC50 [24]: > 20 µM (active)
IC50 [25]: 5.54 µM (active)
AC50 [26]: 5.71 µM (active)
IC50 [27]: 17.9 µM (active)

CC(C)c1ccc(C=NNc2ccc([N+](=O)[O-])cn2)cc1
EC50 [6]: > 67.6 µM (inactive)
EC50 [7]: > 67.6 µM (inactive)

Nc1nc(N)c2c(ccc3c2ccn3Cc2cccc([N+](=O)[O-])c2)n1
AC50 [13]: 1.5 µM (active)
AC50 [17]: 20.3 µM (active)

C[C@@H]1CN([C@@H](C)CO)C(=O)Cc2cc(NC(=O)C3CCCCC3)ccc2O[C@H]1CN(C)Cc1ccc(-c2ccccc2)cc1
AC50 [28]: 14.3 µM (active)
AC50 [11]: 16.8 µM (active)

COc1ccccc1C#Cc1ccc([C@@H]2[C@@H](C#N)N(C(=O)C3CCCCC3)[C@H]2CO)cc1
AC50 [13]: 6.05 µM (active)
AC50 [29]: 31.9 µM (active)
AC50 [30]: 24.2 µM (active)
AC50 [31]: > 70 µM (inactive)
AC50 [32]: 0.689 µM (active)
AC50 [33]: 21.8 µM (active)
AC50 [34]: 1.37 µM (active)
AC50 [35]: 0.562 µM (active)
AC50 [36]: > 39 µM (inactive)
AC50 [37]: 1.14 µM (active)

Cc1noc(C)c1S(=O)(=O)N(C)C[C@H]1OCCCC[C@@H](C)Oc2ccc(NS(=O)(=O)c3ccc(Cl)cc3)cc2C(=O)N([C@@H](C)CO)C[C@@H]1C
AC50 [13]: 10.5 µM (active)
AC50 [38]: 12.1 µM (active)
AC50 [39]: 46.2 µM (active)
AC50 [40]: > 70 µM (inactive)

Cc1ccc(S(=O)(=O)N(C)C[C@@H]2Oc3ccc(NS(=O)(=O)c4c(C)noc4C)cc3CC(=O)N([C@H](C)CO)C[C@@H]2C)cc1
AC50 [41]: 23.2 µM (active)
AC50 [42]: 5.38 µM (active)
AC50 [43]: 11.4 µM (active)

C[C@@H]1CN([C@@H](C)CO)C(=O)c2c(c3ccccc3n2C)-c2ccccc2CO[C@H]1CN(C)C(=O)Nc1cccc(Cl)c1Cl
AC50 [32]: 2.3 µM (active)
AC50 [33]: 27.4 µM (active)
AC50 [34]: 1.86 µM (active)
AC50 [35]: 1.49 µM (active)
AC50 [36]: > 39 µM (inactive)
AC50 [37]: 2.21 µM (active)

COC(=O)C1=C(C)N(Cc2ccccc2C(F)(F)F)C(NCc2ccc(C(F)(F)F)cc2)=NC1c1ccc(C(F)(F)F)cc1 (configuration not stated)
IC50 [44]: > 96.6 µM (inactive)

From ChEMBL document CHEMBL1201862, “PubChem BioAssay data set” (2004)
